Molecules are shown by their SMILES.

These results are taken from ChEMBL document CHEMBL5465560, “Selectivity Literature for EUbOPEN Chemogenomic Library” (2024).

The test system of test [1] is Tyrosine-protein kinase ABL1 (Homo sapiens), P00519 [Y253F]. Conditions: at 10 µM.
In test [2] the target is Aurora kinase B (Homo sapiens, UniProt Q96GD4). Conditions: at 10 µM.
The target of test [3] is Ribosomal protein S6 kinase alpha-5 (Homo sapiens) (UniProt O75582). Kind of test: Selectivity interaction (KinomeScan (DiscoverX)) EUB0000655a RPS6KA5. Conditions: at 10 µM.
The target of test [4] is Ribosomal protein S6 kinase alpha-2 (Homo sapiens) (UniProt Q15349). Put plainly: Selectivity interaction (KinomeScan (DiscoverX)) EUB0000666a RPS6KA2. Conditions: at 10 µM.
The target of test [5] is T1, Histone-arginine methyltransferase CARM1 (Homo sapiens) (UniProt Q86X55).
T1 sequence (whole entry): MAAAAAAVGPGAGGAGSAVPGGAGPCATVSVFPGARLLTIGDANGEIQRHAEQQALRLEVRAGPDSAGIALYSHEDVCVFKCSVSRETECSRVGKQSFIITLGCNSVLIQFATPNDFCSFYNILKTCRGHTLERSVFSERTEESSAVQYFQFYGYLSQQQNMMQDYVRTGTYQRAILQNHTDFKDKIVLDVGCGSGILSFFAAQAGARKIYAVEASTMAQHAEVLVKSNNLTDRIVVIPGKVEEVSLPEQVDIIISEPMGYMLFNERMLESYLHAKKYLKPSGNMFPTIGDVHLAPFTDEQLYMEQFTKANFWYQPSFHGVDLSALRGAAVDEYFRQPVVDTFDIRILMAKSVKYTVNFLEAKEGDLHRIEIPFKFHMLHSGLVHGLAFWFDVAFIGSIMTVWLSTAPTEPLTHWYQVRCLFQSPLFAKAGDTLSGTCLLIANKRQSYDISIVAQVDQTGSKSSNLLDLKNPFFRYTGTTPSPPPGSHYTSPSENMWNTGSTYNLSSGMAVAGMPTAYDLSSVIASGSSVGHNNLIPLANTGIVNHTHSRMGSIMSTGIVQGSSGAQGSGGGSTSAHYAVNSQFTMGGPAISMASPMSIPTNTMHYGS
Conditions: KMS-12-PE, at 3 µM.

The target in test [6] is Tyrosine-protein kinase ABL2 (Homo sapiens, UniProt P42684). Kind of test: Selectivity interaction (ActivX KiNativ screen (ex vivo kinase selectivity in human PBMCs)) EUB0001619a ABL2. In kind it is cell-based. Conditions: PBMC, at 1 µM.
For test [7], the target named is T2, STE20-related kinase adapter protein alpha (Homo sapiens) (UniProt Q7RTN6).
T2 sequence (whole entry): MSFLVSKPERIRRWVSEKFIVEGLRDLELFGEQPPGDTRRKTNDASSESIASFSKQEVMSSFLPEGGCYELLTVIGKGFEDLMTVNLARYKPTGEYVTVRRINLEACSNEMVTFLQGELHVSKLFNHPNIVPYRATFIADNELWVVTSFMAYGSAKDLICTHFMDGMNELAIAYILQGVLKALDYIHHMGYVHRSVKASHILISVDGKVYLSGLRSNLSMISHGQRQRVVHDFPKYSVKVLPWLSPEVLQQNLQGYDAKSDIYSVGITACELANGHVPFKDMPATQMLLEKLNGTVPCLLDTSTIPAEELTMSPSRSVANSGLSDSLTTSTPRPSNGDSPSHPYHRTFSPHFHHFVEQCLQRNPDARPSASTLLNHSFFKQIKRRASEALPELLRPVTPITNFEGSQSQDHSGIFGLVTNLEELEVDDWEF
Put plainly: Selectivity interaction (ActivX KiNativ screen (ex vivo kinase selectivity in human PBMCs)) EUB0001619a STRADA. Conditions: PBMC, at 1 µM. In kind it is cell-based.

In test [8] the target is T3, TGF-beta receptor type-1 (Homo sapiens) (UniProt P36897).
T3 sequence (whole entry): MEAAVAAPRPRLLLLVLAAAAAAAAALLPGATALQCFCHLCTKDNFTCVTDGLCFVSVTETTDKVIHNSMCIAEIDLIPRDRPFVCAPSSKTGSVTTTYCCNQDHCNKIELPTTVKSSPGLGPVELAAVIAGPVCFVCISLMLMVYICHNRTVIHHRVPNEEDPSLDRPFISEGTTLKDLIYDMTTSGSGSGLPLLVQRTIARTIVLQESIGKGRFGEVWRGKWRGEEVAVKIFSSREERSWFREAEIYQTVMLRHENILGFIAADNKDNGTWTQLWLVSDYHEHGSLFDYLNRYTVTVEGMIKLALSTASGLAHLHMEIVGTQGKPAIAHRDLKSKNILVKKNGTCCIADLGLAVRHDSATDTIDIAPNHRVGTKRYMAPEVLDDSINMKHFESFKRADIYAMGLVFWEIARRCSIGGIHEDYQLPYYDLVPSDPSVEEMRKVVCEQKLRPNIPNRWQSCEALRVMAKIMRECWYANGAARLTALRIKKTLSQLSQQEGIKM
Kind of test: Selectivity interaction (KinomeScan (DiscoverX)) EUB0001619a TGFBR1. Conditions: at 1 µM.

The target in test [9] is T4, Dual specificity mitogen-activated protein kinase kinase 5 (Homo sapiens) (UniProt Q13163).
T4 sequence (whole entry): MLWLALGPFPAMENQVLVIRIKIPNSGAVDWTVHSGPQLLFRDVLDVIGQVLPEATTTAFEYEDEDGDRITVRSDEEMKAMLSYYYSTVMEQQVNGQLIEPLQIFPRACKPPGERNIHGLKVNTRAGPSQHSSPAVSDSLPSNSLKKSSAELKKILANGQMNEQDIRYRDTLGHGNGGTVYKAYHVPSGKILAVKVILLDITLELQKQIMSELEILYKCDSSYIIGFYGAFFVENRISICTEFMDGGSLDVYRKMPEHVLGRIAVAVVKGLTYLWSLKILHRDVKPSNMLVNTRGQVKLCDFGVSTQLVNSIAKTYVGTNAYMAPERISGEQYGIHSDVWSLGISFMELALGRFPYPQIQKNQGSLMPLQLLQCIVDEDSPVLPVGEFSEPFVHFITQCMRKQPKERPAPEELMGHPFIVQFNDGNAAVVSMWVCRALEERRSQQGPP
Put plainly: Selectivity interaction (Kinase panel (KiNativ target engagement assay in Jurkat cells)) EUB0001635a MAP2K5. The format is cell-based. Conditions: Selectivity number of off-targets 0.0, Selectivity number of targets 233.0, Source Knowledge https://www.sciencedirect.com/science/article/pii/S2451945619300674?via%3Dihub, at 1 µM.

Test [10] addresses Death-associated protein kinase 3 (Homo sapiens) (UniProt O43293). Kind of test: Selectivity interaction (KinomeScan (DiscoverX)) EUB0000618a DAPK3. Conditions: at 10 µM.

Chain of Death-associated protein kinase 3 (Homo sapiens) (O43293 whole entry, looked up): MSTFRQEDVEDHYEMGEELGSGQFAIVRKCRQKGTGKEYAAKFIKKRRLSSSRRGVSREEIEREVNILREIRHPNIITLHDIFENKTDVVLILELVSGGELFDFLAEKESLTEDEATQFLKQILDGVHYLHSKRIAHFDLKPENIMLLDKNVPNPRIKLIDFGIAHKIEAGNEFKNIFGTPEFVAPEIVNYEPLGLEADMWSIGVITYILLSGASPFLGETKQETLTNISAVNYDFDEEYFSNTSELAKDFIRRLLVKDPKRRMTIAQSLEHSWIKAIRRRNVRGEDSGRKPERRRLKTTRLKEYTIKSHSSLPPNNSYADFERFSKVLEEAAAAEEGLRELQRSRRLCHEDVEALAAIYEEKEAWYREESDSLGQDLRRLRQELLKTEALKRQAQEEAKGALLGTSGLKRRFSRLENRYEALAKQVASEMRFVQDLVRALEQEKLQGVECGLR
Chain of Ribosomal protein S6 kinase alpha-5 (Homo sapiens) (O75582 whole entry, looked up): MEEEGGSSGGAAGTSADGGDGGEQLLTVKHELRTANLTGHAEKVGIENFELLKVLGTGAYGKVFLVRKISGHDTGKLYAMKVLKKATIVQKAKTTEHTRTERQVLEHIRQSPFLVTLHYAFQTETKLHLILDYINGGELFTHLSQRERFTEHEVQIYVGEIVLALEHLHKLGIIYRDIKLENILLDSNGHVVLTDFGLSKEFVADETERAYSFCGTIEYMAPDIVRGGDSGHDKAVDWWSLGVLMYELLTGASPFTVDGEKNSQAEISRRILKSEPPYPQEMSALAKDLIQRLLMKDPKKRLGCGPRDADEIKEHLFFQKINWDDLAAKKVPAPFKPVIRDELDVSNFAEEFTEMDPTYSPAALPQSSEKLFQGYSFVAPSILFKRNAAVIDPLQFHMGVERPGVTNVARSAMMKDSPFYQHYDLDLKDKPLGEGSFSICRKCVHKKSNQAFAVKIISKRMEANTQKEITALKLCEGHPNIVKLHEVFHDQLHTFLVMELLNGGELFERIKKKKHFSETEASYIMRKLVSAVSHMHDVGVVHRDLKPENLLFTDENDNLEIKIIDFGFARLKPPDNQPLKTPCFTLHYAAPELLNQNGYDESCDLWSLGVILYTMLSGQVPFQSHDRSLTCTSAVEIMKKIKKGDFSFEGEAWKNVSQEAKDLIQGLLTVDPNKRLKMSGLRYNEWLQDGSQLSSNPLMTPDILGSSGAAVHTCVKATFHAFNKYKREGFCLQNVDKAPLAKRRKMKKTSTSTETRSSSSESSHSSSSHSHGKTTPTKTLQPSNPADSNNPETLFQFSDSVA
Chain of Aurora kinase B (Q96GD4 whole entry): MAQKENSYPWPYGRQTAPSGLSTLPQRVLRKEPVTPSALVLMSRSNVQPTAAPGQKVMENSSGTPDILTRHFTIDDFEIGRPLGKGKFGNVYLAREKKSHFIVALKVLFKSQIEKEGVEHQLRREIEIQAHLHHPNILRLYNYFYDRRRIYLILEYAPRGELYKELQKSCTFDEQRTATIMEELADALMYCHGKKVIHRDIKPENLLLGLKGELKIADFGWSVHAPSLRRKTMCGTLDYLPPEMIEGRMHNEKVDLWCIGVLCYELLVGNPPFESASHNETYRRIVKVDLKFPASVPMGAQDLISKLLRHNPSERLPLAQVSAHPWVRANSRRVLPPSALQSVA
Chain of Tyrosine-protein kinase ABL2 (P42684 whole entry): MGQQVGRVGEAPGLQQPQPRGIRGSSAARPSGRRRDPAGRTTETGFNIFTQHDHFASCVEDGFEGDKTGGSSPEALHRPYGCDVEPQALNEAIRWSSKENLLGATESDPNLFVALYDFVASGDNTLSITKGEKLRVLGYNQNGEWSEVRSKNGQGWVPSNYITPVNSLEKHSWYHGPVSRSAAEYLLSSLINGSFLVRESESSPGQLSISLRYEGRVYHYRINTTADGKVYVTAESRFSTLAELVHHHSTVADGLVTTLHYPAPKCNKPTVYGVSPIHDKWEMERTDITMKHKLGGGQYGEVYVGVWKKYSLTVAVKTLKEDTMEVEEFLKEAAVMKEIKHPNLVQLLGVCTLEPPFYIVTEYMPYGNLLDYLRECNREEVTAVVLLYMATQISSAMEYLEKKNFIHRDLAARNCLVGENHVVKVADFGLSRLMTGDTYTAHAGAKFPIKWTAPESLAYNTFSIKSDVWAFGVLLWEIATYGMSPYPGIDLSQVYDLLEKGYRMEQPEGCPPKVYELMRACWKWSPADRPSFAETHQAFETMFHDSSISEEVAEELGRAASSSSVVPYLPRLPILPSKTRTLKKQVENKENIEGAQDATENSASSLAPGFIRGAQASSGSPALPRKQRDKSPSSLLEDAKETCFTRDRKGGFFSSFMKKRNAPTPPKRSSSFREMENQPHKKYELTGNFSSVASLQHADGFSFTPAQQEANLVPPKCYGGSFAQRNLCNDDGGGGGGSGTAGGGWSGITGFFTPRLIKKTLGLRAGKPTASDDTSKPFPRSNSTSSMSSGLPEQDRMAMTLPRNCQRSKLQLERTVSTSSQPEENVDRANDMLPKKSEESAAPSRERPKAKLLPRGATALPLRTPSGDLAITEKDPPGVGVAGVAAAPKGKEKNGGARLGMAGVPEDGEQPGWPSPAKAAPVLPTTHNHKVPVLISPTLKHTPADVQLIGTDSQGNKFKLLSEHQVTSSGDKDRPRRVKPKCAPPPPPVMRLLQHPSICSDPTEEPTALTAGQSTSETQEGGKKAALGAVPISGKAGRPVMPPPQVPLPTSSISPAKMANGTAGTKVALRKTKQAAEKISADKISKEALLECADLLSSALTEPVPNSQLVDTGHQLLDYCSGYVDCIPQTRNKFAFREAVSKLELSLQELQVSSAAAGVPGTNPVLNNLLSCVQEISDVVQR
Chain of Ribosomal protein S6 kinase alpha-2 (Homo sapiens) (Q15349 whole entry): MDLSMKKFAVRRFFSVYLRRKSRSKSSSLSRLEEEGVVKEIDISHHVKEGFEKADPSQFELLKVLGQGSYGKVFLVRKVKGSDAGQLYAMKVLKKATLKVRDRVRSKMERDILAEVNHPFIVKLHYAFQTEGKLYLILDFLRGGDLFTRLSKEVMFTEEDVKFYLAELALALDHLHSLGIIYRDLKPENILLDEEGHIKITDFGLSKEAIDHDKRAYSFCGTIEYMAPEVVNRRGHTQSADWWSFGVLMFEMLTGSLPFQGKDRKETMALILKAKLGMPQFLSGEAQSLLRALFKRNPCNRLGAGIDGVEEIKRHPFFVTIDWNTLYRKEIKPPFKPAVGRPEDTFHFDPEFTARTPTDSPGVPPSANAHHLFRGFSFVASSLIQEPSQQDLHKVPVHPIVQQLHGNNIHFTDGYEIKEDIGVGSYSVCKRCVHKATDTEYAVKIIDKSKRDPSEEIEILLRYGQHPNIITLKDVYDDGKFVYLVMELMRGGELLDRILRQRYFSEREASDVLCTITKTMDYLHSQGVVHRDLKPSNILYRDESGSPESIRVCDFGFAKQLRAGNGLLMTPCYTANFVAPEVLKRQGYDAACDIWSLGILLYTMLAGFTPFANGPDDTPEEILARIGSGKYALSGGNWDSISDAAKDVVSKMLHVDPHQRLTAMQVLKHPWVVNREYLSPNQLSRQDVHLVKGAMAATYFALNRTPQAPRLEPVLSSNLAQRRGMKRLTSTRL

Take `Cc1cc([C@@H](C)Nc2ccccc2C(=O)O)c2nc(N3CCOCC3)cc(=O)n2c1` [AZD-6482]: the % of control in test [1] came to 100%; in test [2] it was 96%.

As for `CN(C)CCOc1ccc(-c2nc(-c3ccncc3)c(-c3ccc4c(c3)CC/C4=N\O)[nH]2)cc1`, the % of control in test [3] came out at 100%.

In test [4], `O=C(NOC[C@H](O)CO)c1ccc(F)c(F)c1Nc1ccc(I)cc1F` gave a % of control of 92%.

As to `CNCCN1CCC(c2cc(CN(C)C(=O)c3cccc(Oc4ccccc4)c3)ccn2)CC1`, the % of growth rate in test [5] is -4.4%.

Consider `N#Cc1cccc(-c2c[nH]c3ncnc(N4CCOCC4)c23)c1`, for which the % of inhibition in test [6] was -1%; in [7], 1%. Further, the % of control in test [8] was determined as 79%.

In [9], `C=CC(=O)Nc1ccc(C(=O)Nc2[nH]nc3c2CN(C(=O)N[C@H](CN(C)C)c2ccccc2)C3(C)C)cc1` registered a % of engagement of 5.3%.

Regarding `O[C@H]1CC[C@H](Nc2ncc3nc(Nc4c(F)cc(F)cc4F)n([C@H]4CCOC4)c3n2)CC1`, in test [10], the % of control came to 100%.
